# Literature values, collected in patent publication US9889150B2, “Agents for the prevention and/or treatment of central nervous system damage” (The University Of Liverpool, priority 2012, dated 2018).
# Tests used:
# OECs and astrocytes = details: previous work; cited from earlier work
# FGFR3 = FGFR3 (Homo sapiens, UniProt P22607); details: cited from earlier work
# Sequence of FGFR3 (P22607 23-806, species assumed): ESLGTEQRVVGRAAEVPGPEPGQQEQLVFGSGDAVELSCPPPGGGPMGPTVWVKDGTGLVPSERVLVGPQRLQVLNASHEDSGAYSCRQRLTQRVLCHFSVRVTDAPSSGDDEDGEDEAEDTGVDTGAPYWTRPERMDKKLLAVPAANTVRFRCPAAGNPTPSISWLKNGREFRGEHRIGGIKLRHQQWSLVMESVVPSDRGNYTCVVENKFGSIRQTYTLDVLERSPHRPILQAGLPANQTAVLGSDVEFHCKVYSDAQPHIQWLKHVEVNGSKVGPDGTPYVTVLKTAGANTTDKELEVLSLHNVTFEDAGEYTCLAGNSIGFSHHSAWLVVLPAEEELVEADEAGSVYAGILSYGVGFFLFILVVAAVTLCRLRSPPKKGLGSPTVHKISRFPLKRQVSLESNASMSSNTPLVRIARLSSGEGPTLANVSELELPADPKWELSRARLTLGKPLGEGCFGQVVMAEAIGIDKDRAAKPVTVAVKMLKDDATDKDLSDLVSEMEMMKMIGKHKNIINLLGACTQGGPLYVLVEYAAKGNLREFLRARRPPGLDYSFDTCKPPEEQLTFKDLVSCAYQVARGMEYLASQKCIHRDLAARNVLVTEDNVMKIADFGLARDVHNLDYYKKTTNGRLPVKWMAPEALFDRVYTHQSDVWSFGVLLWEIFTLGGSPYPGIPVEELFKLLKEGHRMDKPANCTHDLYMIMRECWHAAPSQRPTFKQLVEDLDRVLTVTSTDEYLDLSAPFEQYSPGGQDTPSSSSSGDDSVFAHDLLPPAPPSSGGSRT
smiles,measurement,setting,value
Cc1c[nH]c(/C=C2\C(=O)Nc3ccccc32)c1CCC(=O)O [SU5402],SCM-induced boundary formation in OEC/astrocyte cultures,OECs and astrocytes,disrupts SCM-induced boundary formation
same,inhibition of FGFR3,FGFR3,effectively inhibit FGFR3
